Assay results as given in patent US8846012B2, “Melanin production inhibitor” (Pola Chemical Industries Inc., priority 2008, dated 2014).

Test system: normal human melanocytes
Assay: Melanin production inhibition test using cultured normal human melanocytes (14C-thiouracil incorporation)
Assay type: cell-based
Conditions: control = 100%; for activity at 3.1 µM: addition amount 3.1 μM; for activity at 5 µM: addition amount 5.0 μM; for activity at 8 µM: addition amount 8.0 μM; for activity at 10 µM: addition amount 10 μM; for activity at 20 µM: addition amount 20 μM; for activity at 1.6 µM: addition amount 1.6 μM
Description: The inhibitory effect on melanin production of the melanin production inhibitor of the present invention can be measured using thiouracil which is incorporated specifically into cells in a melanin synthesis process in the cells. For example, the amount of melanin production can be measured by measuring an amount of thiouracil incorporated into cells by measuring an amount of radiation with radiolabeled thiouracil.
The inhibitory effect on melanin production of Compound 1 was evaluated using 2-thiouracil (^14C-labeled 2-thiouracil was used in this test) which is incorporated specifically into melanin in an intracellular melanin synthesis process. Complete medium for culture of melanocytes (manufactured by Kurabo Industries Ltd.) was added to 15 wells in a 24-well plate in an amount of 2 mL per well, and normal human melanocytes (manufactured by Kurabo Industries Ltd.) were seeded into the wells at a concentration of 1.5×10^4 cells/cm^2. The cells were cultured in a 5% carbon dioxide atmosphere at 37° C. for 24 hours. Thereafter, the medium in all the wells was exchanged under the following conditions: fresh complete medium for culture of melanocytes (control) was used in three wells; each of complete medium for culture of melanocytes, which including Compound 1 at concentrations of 1.0 μM, 2.0 μM, and 4.0 μM, was used in a total of nine wells including three wells for each concentration; and complete medium for culture of melanocytes, each of which including arbutin (positive control) known as a melanin production inhibitor at a concentration of 0.5 mM (500 μM), was used in the other three wells. Further, 2-[2-^14C]thiouracil (^14C-labeled thiouracil) was added to each of these 15 wells at 0.25×10^−6 Ci (curie). Then, the cells were cultured for further 3 days under the same conditions as the above. After the completion of culture, the culture medium was removed from the wells, and the cells were washed with phosphate buffered physiological saline (PBS) and then separated from the bottoms of the wells with medium including trypsin and EDTA to prepare cell suspensions, followed by centrifugation to collect the cells. The number of the cells was counted using a hemocytometer. Thereafter, the amounts of ^14C-thiouracil in the cells collected from each well (0.25×10^−6 Ci) were measured using a liquid scintillation counter (ALOKA CO., LTD.). The percentages of an amount of radioactivity in the cells cultured in the medium including the test substances with respect to an amount of radioactivity in the cells collected from the well of the control were calculated as amounts of melanin (%). That is, as the amount of radioactivity incorporated into the cells is smaller, the amount of melanin is evaluated to be smaller, i.e., the melanin inhibition effect of the component added is evaluated to be larger.
Inhibitory effects on melanin production of Compounds 2 to 39 (however, the effects of Compound 9 and 15 were not measured) were examined in the same procedure as in Test Example 1.
These were examined in the same procedure as in Test Example 1.
Further, the results of melanin production inhibition by treatment with the respective test compounds, determined in the same procedure as in Test Example 1, are also shown in the table.

[1] = Homo sapiens, Melanocyte, Table 2

Question: With `CC(c1ccccc1)(c1ccc(O)cc1)c1ccc(O)cc1` [4,4′-(1-Phenylidene)-bisphenol] as the molecule, how does the Amount of melanin (Table 3, addition amount 3.0 μM) read?
Answer: Its Amount of melanin is 44.8 ± 1.0%.

Question: Which activity at 3.1 µM [1] does the source give for `Cc1ccc(C(c2ccc(C)cc2)(c2ccc(C)cc2)N2CCCCC2)cc1` [Compound 27, 1-[tris(4-methylphenyl)methyl]piperidine] here?
Answer: Its activity at 3.1 µM is 47.5 ± 0.6%.

Question: `Oc1ccc(C(c2ccccc2)(c2ccccc2)c2ccccc2)cc1` [4-Tritylphenol] was tested. Which activity at 1.25 µM (Homo sapiens, Melanocyte, Table 3, addition amount 1.25 μM) did it give?
Answer: The activity at 1.25 µM was 27 ± 0.4%.

Question: `O[C@@H]1CCN(C(c2ccccc2)(c2ccccc2)c2ccccc2)C1` [Compound 12, (R)-1-triphenylmethyl-3-pyrrolidinol] was tested. Which activity at 5 µM [1] did it give?
Answer: The activity at 5 µM was 62.9 ± 3.7%.

Question: Which activity at 5 µM [1] does the source give for `COc1ccc(C(OCCN)(c2ccccc2)c2ccccc2)cc1` [Compound 35, 2-[[diphenyl (4-methoxyphenyl)]methyloxy]ethylamine] here?
Answer: The activity at 5 µM was 80.4 ± 8.8%.

Question: Which activity at 15 µM (Homo sapiens, Melanocyte, Table 2, addition amount 15 μM) does the source give for `O=C1CCC(=O)N1C(c1ccccc1)(c1ccccc1)c1ccccc1` [Compound 11, 1-(triphenylmethyl)succinimide] here?
Answer: Its activity at 15 µM is 53.7 ± 0.9%.

Question: With `CCNC(c1ccccc1)(c1ccccc1)c1ccccc1` [Compound 30, N-(triphenylmethyl)-N-ethylamine] as the molecule, how does the activity at 8 µM [1] read?
Answer: Its activity at 8 µM is 41.4 ± 0.7%.

Question: `COc1ccc(C(O)(c2ccccc2)c2ccccc2)cc1` [Compound 17, [diphenyl(4-methoxyphenyl)]methanol] was tested. Which activity at 10 µM [1] did it give?
Answer: Its activity at 10 µM is 37 ± 1.5%.

Question: Which activity at 3.1 µM [1] does the source give for `COc1ccc(C(c2ccccc2)(c2ccc(OC)cc2)N2CCCCC2)cc1` [Compound 20, 1-[[bis(4-methoxyphenyl)phenyl]methyl]piperidine] here?
Answer: The activity at 3.1 µM was 73.2 ± 3.2%.

Question: For `COc1ccc(C(c2ccc(OC)cc2)(c2ccc(OC)cc2)N2CCCCC2)cc1` [Compound 21, 1-[tris(4-methoxyphenyl)methyl]piperidine], which activity at 12.5 µM (Homo sapiens, Melanocyte, Table 2, addition amount 12.5 μM) is on record?
Answer: The activity at 12.5 µM was 53.5 ± 0.4%.

Question: For `CC(c1ccc(O)cc1)c1ccc(O)cc1` [4,4′-Ethylidenebisphenol], which activity at 25 µM (Homo sapiens, Melanocyte, Table 3, addition amount 25 μM) is on record?
Answer: Its activity at 25 µM is 30.5 ± 6.1%.

Question: With `c1ccc(C(c2ccccc2)(c2ccncc2)N2CCCCC2)cc1` [Compound 10, 1-{[diphenyl(4-pyridyl)]methyl}piperidine] as the molecule, how does the activity at 0.3 µM (Homo sapiens, Melanocyte, Table 2, addition amount 0.3 μM) read?
Answer: Its activity at 0.3 µM is 77.3 ± 0.4%.

Question: With `OCCN(CCO)C(c1ccccc1)(c1ccccc1)c1ccccc1` [Compound 37, N,N-[bis(2-hydroxyethyl)]-N-(triphenylmethyl)amine] as the molecule, how does the activity at 4 µM (Homo sapiens, Melanocyte, Table 2, addition amount 4.0 μM) read?
Answer: The activity at 4 µM was 69.6 ± 3.9%.

Question: Which activity at 5 µM [1] does the source give for `COc1ccc(C(NCCO)(c2ccccc2)c2ccccc2)cc1` [Compound 33, 2-[[diphenyl(4-methoxyphenyl)]methylamino]ethanol] here?
Answer: The activity at 5 µM was 67.7 ± 5.1%.

Question: For `Cc1ccc(C(c2ccc(C)cc2)N2CCCC2)cc1` [Compound 29, 1-[bis(4-methylphenyl)methyl]pyrrolidine], which activity at 20 µM [1] is on record?
Answer: Its activity at 20 µM is 49 ± 1.9%.

Question: `COc1ccc(C(OCCO)(c2ccccc2)c2ccc(OC)cc2)cc1` [Compound 32, 2-[bis(4-methoxyphenyl)phenylmethyloxy]ethanol] was tested. Which activity at 3.1 µM [1] did it give?
Answer: Its activity at 3.1 µM is 58.8 ± 7.1%.

Question: How did the activity at 3.1 µM [1] turn out when `COc1ccc(C(OCCO)(c2ccccc2)c2ccccc2)cc1` [Compound 31, 2-[[diphenyl(4-methoxyphenyl)]methyloxy]ethanol] was run?
Answer: Its activity at 3.1 µM is 37.6 ± 3.3%.

Question: With `OC[C@H]1O[C@@H](Oc2ccc(O)cc2)[C@H](O)[C@@H](O)[C@@H]1O` [Arbutin, arbutin, reference compound] as the molecule, how does the activity at 500 µM (Homo sapiens, Melanocyte, addition amount 500 μM, mean ± SD of three samples) read?
Answer: Its activity at 500 µM is 64.6 ± 2.3%.

Question: `O=C(O)[C@H](CO)NC(c1ccccc1)(c1ccccc1)c1ccccc1` [Compound 39, N-(triphenylmethyl) serine] was tested. Which activity at 8 µM [1] did it give?
Answer: The activity at 8 µM was 54.9 ± 5.5%.

Question: For `Oc1ccc(C2(c3ccc(O)cc3)CCCCC2)cc1` [4,4′-Cyclohexylidenebisphenol], which activity at 3 µM (Homo sapiens, Melanocyte, Table 3, addition amount 3.0 μM) is on record?
Answer: The activity at 3 µM was 38.3 ± 2.5%.

Question: How did the activity at 20 µM [1] turn out when `OC(c1ccccc1)c1ccc2ccccc2c1` (stereo not shown) [Compound 13, [(naphthyl)phenyl]methanol] was run?
Answer: Its activity at 20 µM is 68.7 ± 5.2%.

Question: `Cc1ccc(C(O)(c2ccccc2)c2ccc(C)cc2)cc1` [Compound 23, [bis(4-methylphenyl)phenyl]methanol] was tested. Which activity at 3.1 µM [1] did it give?
Answer: Its activity at 3.1 µM is 47.2 ± 0.2%.

Question: `COc1ccc(C(OCCN)(c2ccccc2)c2ccc(OC)cc2)cc1` [Compound 36, 2-[[bis(4-methoxyphenyl)phenyl]methyloxy]ethylamine] was tested. Which activity at 10 µM [1] did it give?
Answer: Its activity at 10 µM is 71.7 ± 5.1%.

Question: With `c1ccc(C(c2ccccc2)(c2ccccc2)N2CCOCC2)cc1` [Compound 8, N-(triphenylmethyl)morpholine] as the molecule, how does the activity at 2.5 µM (Homo sapiens, Melanocyte, Table 2, addition amount 2.5 μM) read?
Answer: The activity at 2.5 µM was 39.2 ± 10.7%.

Question: For `OCC(O)COC(c1ccccc1)(c1ccccc1)c1ccccc1` (stereo not shown) [Compound 38, 1,2-dihydroxy-3-(triphenylmethyloxy)propane], which activity at 8 µM [1] is on record?
Answer: Its activity at 8 µM is 75.6 ± 0.2%.

Question: For `COc1ccc(C(NCCO)(c2ccccc2)c2ccc(OC)cc2)cc1` [Compound 34, 2-[[bis(4-methoxyphenyl)phenyl]methylamino]ethanol], which activity at 5 µM [1] is on record?
Answer: Its activity at 5 µM is 71.4 ± 1.9%.

Question: `c1ccc(C(c2ccccc2)(c2ccccc2)N2CCNCC2)cc1` [Compound 7, 1-(triphenylmethyl)piperazine] was tested. Which activity at 6 µM (Homo sapiens, Melanocyte, Table 2, addition amount 6.0 μM) did it give?
Answer: Its activity at 6 µM is 51.1 ± 5.8%.

Question: Which activity at 1.6 µM [1] does the source give for `Cc1ccc(C(c2ccccc2)(c2ccccc2)N2CCCCC2)cc1` [Compound 25, [[diphenyl(4-methylphenyl)]methyl]piperidine] here?
Answer: The activity at 1.6 µM was 48 ± 1.9%.

Question: How did the activity at 3.1 µM [1] turn out when `Cc1ccc(C(O)(c2ccccc2)c2ccccc2)cc1` [Compound 24, [diphenyl(4-methylphenyl)]methanol] was run?
Answer: Its activity at 3.1 µM is 51.6 ± 1.6%.

Question: How did the activity at 3.1 µM [1] turn out when `COc1ccc(C(c2ccccc2)(c2ccccc2)N2CCCCC2)cc1` [Compound 19, 1-[[(4-methoxyphenyl)diphenyl]methyl]piperidine] was run?
Answer: Its activity at 3.1 µM is 51.5 ± 5.7%.

Question: With `COc1ccc(C(O)(c2ccccc2)c2ccc(OC)cc2)cc1` [Compound 18, [bis(4-methoxyphenyl)phenyl]methanol] as the molecule, how does the activity at 10 µM [1] read?
Answer: The activity at 10 µM was 55.3 ± 3.4%.

Question: How did the activity at 60 µM (Homo sapiens, Melanocyte, Table 2, addition amount 60 μM) turn out when `c1ccc(C(c2ccccc2)N2CCCC2)cc1` [Compound 28, 1-(diphenylmethyl)pyrrolidine] was run?
Answer: The activity at 60 µM was 77.3 ± 5.6%.

Question: Which activity at 1.6 µM [1] does the source give for `Cc1ccc(C(O)(c2ccc(C)cc2)c2ccc(C)cc2)cc1` [Compound 22, tris(4-methylphenyl)methanol] here?
Answer: The activity at 1.6 µM was 50.6 ± 2%.

Question: For `OC(c1ccccc1)(c1ccccn1)c1ccccn1` [Compound 16, di(2-pyridyl)phenylmethanol], which activity at 100 µM (Homo sapiens, Melanocyte, Table 2, addition amount 100 μM) is on record?
Answer: Its activity at 100 µM is 91.5 ± 4.6%.
